Our source for the TGI and GI50 values is PubChem BioAssay (NCI).

SMILES strings stand for the structures. “And” between values parts separate entries of the source, which are not always exact repeats. Identical values can stand only once.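 Dose response: 5 concentrations. Exposure: 48 h. Format: 96-well plates. Endpoint: linear interpolation; highest concentration if not reached. The concentration for 50% growth inhibition is given as GI50. TGI denotes the concentration required for complete inhibition of growth.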

A word on the TGI: it is the concentration at which net growth stops. What is called GI50 is the concentration that inhibits growth by half.

Some test systems named below: HT29 colon; SW-620 colon; 786-0 renal; ACHN renal; SNB-75 CNS; K-562 leukemia; M14 melanoma; SK-MEL-28 melanoma; U251 CNS; LOX IMVI melanoma.
Assay in all cases: DTP human tumour cell line panel, 48 h

In the case of `c1ccc2c3c([nH]c2c1)C1C2CCCCN2C(c2ccncc2)N1CC3` (configuration not stated), the TGI in the experiment with HT29 colon is above 100 µM; in the experiment on SW-620 colon, above 100 µM; in the experiment on 786-0 renal it was above 100 µM; with ACHN renal, above 100 µM; in the experiment with SNB-75 CNS, 89 µM; with K-562 leukemia, above 100 µM. In addition, the TGI in the experiment on M14 melanoma, in the experiment with SK-MEL-28 melanoma, in the experiment with U251 CNS and with LOX IMVI melanoma was above 100 µM throughout.

Take `N#CC(NC(=O)CCl)=C(Cl)Cl`: the GI50 in the experiment with HT29 colon is 1.76 µM; with SW-620 colon it was 1.44 µM; in the experiment with 786-0 renal, 2.13 µM; in the experiment with ACHN renal, 1.22 µM; in the experiment with SNB-75 CNS, 1.63 µM; with K-562 leukemia it was 0.595 µM. The GI50 was 1.34 µM with M14 melanoma, 1.56 µM with SK-MEL-28 melanoma, 1.75 µM in the experiment with U251 CNS and 1.57 µM in the experiment on LOX IMVI melanoma. Moreover, the TGI was determined as 3.44 µM in the experiment with HT29 colon; 3.49 µM in the experiment on SW-620 colon; 5.87 µM in the experiment on 786-0 renal; 2.51 µM in the experiment on ACHN renal; 4.27 µM in the experiment with SNB-75 CNS; 2.71 µM in the experiment on K-562 leukemia. The TGI in the experiment with M14 melanoma worked out at 2.87 µM; in the experiment with SK-MEL-28 melanoma it was 3.03 µM; in the experiment on U251 CNS it was 3.79 µM; in the experiment on LOX IMVI melanoma, 3.1 µM.

With `O=NN(CCCl)C(=O)NC1CCCCC1`, the GI50 with HT29 colon was 36.6 µM and 64.3 µM; in the experiment with SW-620 colon, 18.3 µM and 44.1 µM; in the experiment on 786-0 renal it was 32 µM; with ACHN renal, 23.2 µM and 82.7 µM; in the experiment on SNB-75 CNS, 23.3 µM and 42.1 µM; with K-562 leukemia, 10.9 µM and 36.6 µM. The GI50 in the experiment on M14 melanoma is 16.8 µM and 56.8 µM; in the experiment with SK-MEL-28 melanoma, 24.1 µM and 66.1 µM; in the experiment with U251 CNS, 15.8 µM and 64.7 µM; with LOX IMVI melanoma, 14.2 µM and 27.9 µM. Besides, the TGI in the experiment with HT29 colon is 139 µM and 165 µM; in the experiment on SW-620 colon it was 45.9 µM and 108 µM and 98.7 µM; in the experiment on 786-0 renal it was 33.9 µM and 65.9 µM and 68.6 µM; in the experiment with ACHN renal, 57.6 µM and 153 µM and 182 µM; in the experiment on SNB-75 CNS, 64.5 µM and 112 µM and 108 µM; in the experiment with K-562 leukemia, 43.9 µM and 228 µM and 106 µM. Further, the TGI is 33 µM and 127 µM and 82.8 µM in the experiment with M14 melanoma; 46.5 µM and 144 µM and 99.2 µM in the experiment with SK-MEL-28 melanoma; 51.2 µM and 103 µM and 173 µM in the experiment with U251 CNS; 52 µM and 56.9 µM and 74.8 µM in the experiment on LOX IMVI melanoma.

As for `COC(=O)CC1CC2(C(=O)OC)c3[nH]c4ccccc4c3CCN2C1=O` (configuration not stated), the TGI in the experiment on HT29 colon, in the experiment with SW-620 colon, in the experiment on 786-0 renal, with ACHN renal, in the experiment with SNB-75 CNS and with K-562 leukemia was above 100 µM in each case. Besides, the TGI in the experiment on M14 melanoma, in the experiment on SK-MEL-28 melanoma, with U251 CNS and in the experiment with LOX IMVI melanoma was above 100 µM in each case.

With `COc1ccc(/C(C)=C(\c2ccc(Cl)cc2)c2ccc(OCCN3CCCCCC3)cc2)cc1F`, the GI50 in the experiment on HT29 colon is 0.611 µM; in the experiment on SW-620 colon it was 2.14 µM; with 786-0 renal, 2.56 µM; with ACHN renal it was 5.19 µM; with SNB-75 CNS, 4.16 µM; in the experiment on K-562 leukemia it was 0.828 µM. The GI50 with M14 melanoma was 2.74 µM; with SK-MEL-28 melanoma, 2.54 µM; with U251 CNS, 2.79 µM; with LOX IMVI melanoma, 2.51 µM. In addition, the TGI with HT29 colon is above 16.7 µM; in the experiment with SW-620 colon it was 4.81 µM; in the experiment with 786-0 renal, 5.11 µM; with ACHN renal, above 16.7 µM; with SNB-75 CNS it was 13.3 µM; in the experiment with K-562 leukemia, 16.4 µM. Besides, the TGI with M14 melanoma amounted to 7.18 µM; with SK-MEL-28 melanoma it was 4.9 µM; in the experiment on U251 CNS it was 7.59 µM; in the experiment on LOX IMVI melanoma it was 4.82 µM.

On to `CC1OC(OC2C(O[C@H]3CC[C@@]4(C)C(=CC[C@H]5[C@@H]6C[C@@H]7O[C@]8(CC[C@@H](C)CO8)[C@@H](C)[C@@H]7[C@@]6(C)CC[C@@H]54)C3)OC(CO)C(OC3OC(CO)C(O)C3O)C2O)C(O)C(O)C1O` (some centres not stated), for which the GI50 in the experiment with HT29 colon is 1.01 µM; in the experiment on SW-620 colon it was 0.195 µM; with 786-0 renal it was 0.221 µM; in the experiment with M14 melanoma it was 0.205 µM; with SK-MEL-28 melanoma, 0.21 µM; with U251 CNS it was 0.325 µM. In the experiment with LOX IMVI melanoma, the 50% growth inhibitory concentration (GI50) is 0.21 µM. In addition, the TGI in the experiment with HT29 colon is 1.62 µM and 2.17 µM; with SW-620 colon, 2.57 µM and 0.419 µM; in the experiment with 786-0 renal, 1.34 µM and 0.464 µM; in the experiment with ACHN renal, 1.58 µM and 2.12 µM; in the experiment with SNB-75 CNS it was 1.62 µM; with K-562 leukemia it was 50 µM. Further, the TGI with M14 melanoma is 1.43 µM and 0.362 µM; with SK-MEL-28 melanoma, 1.37 µM and 0.522 µM; in the experiment with U251 CNS, 1.44 µM; with LOX IMVI melanoma, 1.19 µM and 0.517 µM.

`CC1=C(CNO)C2=C(C)C3(CC3)[C@@](C)(O)C(=O)C2=C1`: the GI50 is 2.34 µM in the experiment with HT29 colon; 4.54 µM in the experiment on SW-620 colon; 2.53 µM in the experiment on 786-0 renal; 2.25 µM in the experiment with ACHN renal; 1.38 µM in the experiment on SNB-75 CNS; 11.9 µM in the experiment on K-562 leukemia. Besides, the GI50 is 1.92 µM with M14 melanoma, 2.37 µM with SK-MEL-28 melanoma, 2.39 µM in the experiment on U251 CNS and 3.44 µM in the experiment with LOX IMVI melanoma. For the same molecule, the TGI was 58.8 µM with HT29 colon; above 100 µM in the experiment on SW-620 colon; 6.88 µM in the experiment on 786-0 renal; 7.6 µM with ACHN renal; 2.86 µM in the experiment with SNB-75 CNS; above 100 µM in the experiment on K-562 leukemia. Besides, the total growth inhibition concentration (TGI) with M14 melanoma is 5.04 µM; with SK-MEL-28 melanoma, 6.05 µM; in the experiment with U251 CNS, above 100 µM; in the experiment on LOX IMVI melanoma, 19 µM.

Take `O=c1nc2[nH]c3c(-c4n[nH]c(=O)[nH]c4=O)cccc3c2n[nH]1`: the GI50 in the experiment with HT29 colon, with SW-620 colon, with 786-0 renal, in the experiment on ACHN renal, with SNB-75 CNS and in the experiment with K-562 leukemia was above 100 µM throughout. Also, the GI50 in the experiment with M14 melanoma, in the experiment on SK-MEL-28 melanoma, in the experiment on U251 CNS and with LOX IMVI melanoma was above 100 µM throughout. In addition, the TGI in the experiment with HT29 colon, in the experiment on SW-620 colon, with 786-0 renal, in the experiment on ACHN renal, in the experiment with SNB-75 CNS and in the experiment on K-562 leukemia was above 100 µM each time. The TGI with M14 melanoma, in the experiment on SK-MEL-28 melanoma, in the experiment with U251 CNS and with LOX IMVI melanoma was above 100 µM throughout.
